# Values of other authors in patent US7981649B2 (priority 2001, dated 2011).
# System: human hepatocyte and neuroblastoma cells
row,Compound,effect on cell metabolism
1,CCOP(=O)(OCC)Oc1ccc([N+](=O)[O-])cc1 [paraoxon],opposite effects on hepatocyte and neuroblastoma cell metabolism
2,CCOP(=S)(OCC)Oc1ccc([N+](=O)[O-])cc1 [parathion],opposite effects on hepatocyte and neuroblastoma cell metabolism
